Assay results reported in EP3470068B1, “ANTIBACTERIAL COMPOSITIONS WITH ENHANCED ACTIVITY” (Università degli Studi di Parma, priority 2017, dated 2019).
Peptide text beside a SMILES is read from it.

Assays:
[1] = system: Pseudomonas aeruginosa ATCC 27853; assay: MIC by serial microdilution in liquid culture; format: cell-based; details: P. aeruginosa ATCC 27853; phosphate buffer 10 mM with 40% Müller Hinton broth, 24 hours at 37°C
Procedure: (§1) For each bacterial strain 3-5 morphologically similar colonies from fresh cultures were taken, inoculated in Brain Heart Infusion broth medium and then incubated at 37°C in agitation at 225 r.p.m. for about 3-4 hours. Subsequently, the bacterial suspension was centrifuged at 1000 r.p.m. for 20 minutes and the obtained pellet was resuspended in phosphate buffer 10 mM. Turbidity of the bacterial suspension was measured by evaluating the absorbance using a spectrophotometer at 600 nm. The range 0,08-0,13 equates to a concentration of about 10^8 CFU/ml. The bacterial suspension was diluted 1:100 in phosphate buffer 10 mM, then, within 30 minutes, 50 µl of this bacterial suspension (10^6 CFU/ml) were inoculated in each well of the microtiter plate to obtain a final bacterial concentration of about 5 x 10^5 CFU/ml.
(§2) The different molecules were tested for their ability to inhibit bacterial and fungal growth in broth culture. Single molecules were diluted in phosphate buffer 10 mM with 40% of Müller Hinton broth. 50 µl of diluted molecules were added to microtiter U plate wells with phosphate buffer and 40% of Müeller Hinton broth and a suspension of one of these strains: Escherichia coli ATCC 25922, Pseudomonas aeruginosa ATCC 27853, Staphylococcus aureus ATCC 25923, MRSA ATCC 43300, Candida albicans ATCC 11006 or Malassezia pachydermatis DSMZ 6172.
(§3) For bacterial strains the different molecules were tested at the following concentrations: • NCP-3: from 0,2 µg/ml to 50 µg/ml • Benzalkonium chloride: from 0,00008% to 0,04% • Thimerosal: from 0,0008% to 0,4% • Tris/EDTA: from 0,4%/0,1% to 0,0008%/0,0002%
(§4) Bacterial and fungal growth controls were cultured in absence of antimicrobial molecules. Microtiter plates were incubated 24 or 48 hours (bacterial and fungal strains, respectively) at 37°C and subsequently MIC was determined for each molecule against each strain.

[2] = system: Escherichia coli ATCC 25922; assay: MIC by serial microdilution in liquid culture; format: cell-based; details: E. coli ATCC 25922; phosphate buffer 10 mM with 40% Müller Hinton broth, 24 hours at 37°C
Procedure: as §1, §2, §3, §4

[3] = system: Staphylococcus aureus ATCC 25923; assay: MIC by serial microdilution in liquid culture; format: cell-based; details: S. aureus ATCC 25923; phosphate buffer 10 mM with 40% Müller Hinton broth, 24 hours at 37°C
Procedure: as §1, §2, §3, §4

[4] = system: Pseudomonas aeruginosa ATCC 27853; assay: LD90/LD99 by microdilution and agar plating (CFU count); format: cell-based; details: P. aeruginosa ATCC 27853; two hours contact at 37°C, plated on agar, CFU counted
Procedure: as §1, with “colonies were collected” for “colonies”, “fresh cultures,” for “fresh cultures were taken,”, “CFU/ml. the” for “CFU/ml. The”
(§5) Different molecules were tested for their ability to inhibit bacterial and fungal growth in broth culture. 50 µl of molecules at the indicated below concentrations were added to microtiter U plate 96 wells with phosphate buffer and a suspension of one of these strains: Escherichia coli ATCC 25922, Pseudomonas aeruginosa ATCC 27853, Staphylococcus aureus ATCC 25923, MRSA ATCC 43300, Candida albicans ATCC 11006 or Malassezia pachydermatis DSMZ 6172.
(§6) The following concentrations of the different molecules were tested: • NCP-3: from 0,2 µg/ml to 50 µg/ml • Benzalkonium chloride: from 0,00008% to 0,04% • Thimerosal: from 0,0008% to 0,4% • Tris/EDTA: from 0,4%/0,1% to 0,0008%/0,0002%
(§7) The bacterial or fungal suspension has been contacted for two hours with the different antimicrobial molecules at 37°C. After incubation, 20 µl of solution were withdrawn from each dilution and plated on agar medium, Columbia with 5% of bovine erythrocytes for bacterial strains and Sabouraud agar for fungal strains. The inoculum was uniformly distributed on agar plates with a sterile disposable handle. After incubation at 37°C for 24 hours for bacterial strains and 48 hours for fungal strains, colonies (CFU) were counted.

[5] = system: Escherichia coli ATCC 25922; assay: as above; format: cell-based; details: E. coli ATCC 25922; two hours contact at 37°C, plated on agar, CFU counted
Procedure: as §1, with “colonies were collected” for “colonies”, “fresh cultures,” for “fresh cultures were taken,”, “CFU/ml. the” for “CFU/ml. The”
as §5, §6, §7

[6] = system: Staphylococcus aureus ATCC 25923; assay: as above; format: cell-based; details: S. aureus ATCC 25923; two hours contact at 37°C, plated on agar, CFU counted
Procedure: as §1, with “colonies were collected” for “colonies”, “fresh cultures,” for “fresh cultures were taken,”, “CFU/ml. the” for “CFU/ml. The”
as §5, §6, §7

[7] = system: Malassezia pachydermatis DSMZ 6172; assay: as above; format: cell-based; details: M. pachydermatis DSMZ 6172; two hours contact at 37°C, plated on Sabouraud agar, CFU counted
Procedure: (§8) For each fungal strain 3-5 morphologically similar colonies were collected from fresh cultures, inoculated in Brain Heart Infusion broth medium and then incubated at 37°C in agitation at 225 r.p.m. for 6-8 hours. Subsequently, the fungal suspension was centrifuged at 1000 r.p.m. for 20 minutes and the obtained pellet was resuspended in phosphate buffer 10 mM and diluted to a turbidity equal to 5 of McFarland standard, corresponding to a concentration of 10^8 CFU/ml. The fungal suspension was diluted 1:100 in phosphate buffer 10 mM, then, within 30 minutes, 50 µl of this bacterial suspension (10^6 CFU/ml) were inoculated in each well of microtiter plate to obtain a final concentration of about 5 x 10^5 CFU/ml.
as §5, §6, §7

[8] = system: Candida albicans ATCC 11006; assay: as above; format: cell-based; details: C. albicans ATCC 11006; two hours contact at 37°C, plated on Sabouraud agar, CFU counted
Procedure: as §8, §5, §6, §7

[9] = system: MRSA ATCC 43300; assay: MIC by serial microdilution in liquid culture; format: cell-based, Methicillin Resistant Staphylococcus aureus (MRSA); details: phosphate buffer 10 mM with 40% Müller Hinton broth, 24 hours at 37°C
Procedure: as §1
as §2, with “6172. […]” for “6172.”

[10] = system: Gram negative; assay: MIC by serial microdilution; format: cell-based; details: used alone
Procedure: as §1
as §2, with “6172. […]” for “6172.”

[11] = system: Gram positive bacteria; assay: MIC by serial microdilution; format: cell-based; details: used alone
Procedure: as §1
as §2, with “6172. […]” for “6172.”

[12] = system: MRSA ATCC 43300; assay: LD90/LD99 by microdilution and agar plating (CFU count); format: cell-based, Methicillin Resistant Staphylococcus aureus (MRSA); details: two hours contact at 37°C, plated on agar, CFU counted
Procedure: as §1, with “colonies were collected” for “colonies”, “fresh cultures,” for “fresh cultures were taken,”, “CFU/ml. the” for “CFU/ml. The”
Different molecules were tested for their ability to inhibit bacterial and fungal growth in broth culture. […]
The bacterial or fungal suspension has been contacted for two hours with the different antimicrobial molecules at 37°C. […] After incubation at 37°C for 24 hours for bacterial strains and 48 hours for fungal strains, colonies (CFU) were counted.

[13] = system: Malassezia pachydermatis DSMZ 6172; assay: MIC by serial microdilution in liquid culture; format: cell-based; details: M. pachydermatis DSMZ 6172; phosphate buffer 10 mM with 40% Müller Hinton broth, 48 hours at 37°C
Procedure: as §8, with “Fungal” for “The fungal”
as §2, with “6172. […]” for “6172.”

[14] = system: Candida albicans ATCC 11006; assay: MIC by serial microdilution in liquid culture; format: cell-based; details: C. albicans ATCC 11006; phosphate buffer 10 mM with 40% Müller Hinton broth, 48 hours at 37°C
Procedure: as §8, with “Fungal” for “The fungal”
as §2, with “6172. […]” for “6172.”

For `CC[C@H](C)[C@H](NC(=O)[C@H](CCCCN)NC(=O)[C@H](Cc1ccc(O)cc1)NC(=O)[C@H](Cc1ccccc1)NC(=O)[C@H](CC(C)C)NC(=O)[C@H](CC(N)=O)NC(=O)[C@H](CCCCN)NC(=O)[C@@H](NC(=O)[C@H](C)NC(=O)[C@@H]1CCCN1C(=O)[C@@H](NC(=O)[C@@H](NC(=O)[C@H](CCCCN)NC(=O)[C@H](CO)NC(=O)[C@H](CC(C)C)NC(=O)[C@@H](NC(=O)[C@H](Cc1c[nH]c2ccccc12)NC(=O)[C@@H](NC(=O)[C@H](CC(C)C)NC(=O)[C@@H](N)CCCCN)[C@@H](C)CC)[C@@H](C)CC)[C@@H](C)O)[C@@H](C)CC)[C@@H](C)CC)C(=O)O` [NCP-3] (H-KLIWILSKTIPAIKNLFYKI-OH), the MIC [1] was 6,3 µg/ml, the MIC [2] was 6,3 µg/ml and the MIC [3] was 3,1 µg/ml. The LD90 [4] was 6,3 µg/ml, the LD99 [4] was 12,5 µg/ml and the LD90 [5] was 6,3 µg/ml. The LD99 [5] was 12,5 µg/ml, the LD90 [6] was >1,6 µg/ml and the LD99 [6] was 6,3 µg/ml. The LD90 [7] was >1,6 µg/ml, the LD99 [7] was 3,2 µg/ml and the LD90 [8] was >6,3 µg/ml. For the same compound, the LD99 [8] was 12,5 µg/ml, the MIC [9] was 6,3 µg/ml and the MIC [10] was 6,3 µg/ml. The MIC [11] was 3,2 µg/ml, the LD90 [12] was 6,3 µg/ml and the LD99 [12] was 12,5 µg/ml. The MIC [13] was 3,1 µg/ml and the MIC [14] was 12,5 µg/ml.
